Experimental findings from patent publication US5525627A, “Esters of acyl carnitines with long-chain aliphatic alcohols and pharmaceutical compositions containing same having antimycotic activity” (Sigma-Tau Industrie Farmaceutiche Riunite S.p.A., priority 1992, dated 1996) are described below.

The series relates to spleen, thymus and splenocytes. Kind of series: Test 3: body, spleen and thymus weight and splenocyte concentration. In kind it is in vivo, mice (male B6 D2 F1). Conditions: 100 mg/kg/day oral, 5 consecutive days. The procedure: Test 3: Evaluation of the effect of repeated oral administrations of ST 722 on the body, spleen and thymus weight, and on the splenocyte concentration in mice.
Male B6 D2 F1 mice (C. River) aged 10 weeks (5 animals each group) were orally treated with the substance ST 722 at the dose of 100 mg/kg/day for 5 consecutive days. Twenty-four hours after the last administration, the animals were sacrificed, the organs removed and weighed, and the splenocyte number determined.

Regarding `CCCCCCCCCCCOC(=O)C[C@H](C[N+](C)(C)C)OC(=O)CC(C)C` [ST 722, isovaleryl-L-carnitine undecyl ester chloride], the “specific immunotoxic effects on the considered parameters” value is “lack of specific immunotoxic effects”. Where the note is “x ± S.E.”, the Body weight is listed as 26.50 ± 0.53 g, the Spleen weight was found to be 73.25 ± 3.84 mg and the Thymus weight was found to be 38.80 ± 3.01 mg.
